Measurements: patent US5229265A, “Process for analyzing clastogenic agents” (Litron Laboratories, priority 1990, dated 1993)
“And” between values parts separate entries of the source, which are not always exact repeats. Identical values can stand only once.

Assays:
[1] = system: micronucleated cells in blood; assay: Single parameter flow cytometric micronucleus analysis, cyclophosphamide, effect of analysis window size; type: in vivo, mouse
Method: In order to show this single parameter embodiment of this invention, the instrument was aligned with the malaria parasite, P. berghei, data was acquired, and analysis windows were defined relative to the malaria peak. […] A prominent peak, characteristic of cells single parasites, is evident. The primary analysis window was used to bracket the main peak and extends to the third log has mark. […] Blood samples (t=0 and t=96 hr) from a mouse that was dosed with cyclophosphamide (at t=0 and t=48 hrs) were stained with […] and the events were also acquired in the single parameter mode. FIGS. 9A and 9B show the blue fluorescence histograms that were obtained for the t=0 and the t=96 hr samples, respectively. The analysis windows shown in FIG. 9 are those that were initially set up with the malaria infected blood sample shown in FIG. 8. The number of events present in the primary analysis windows are shown. […]
Practioners in the art are presently unaware of the need for internal quality control on the flow cytometer signals during the analysis of each sample. […] As indicated earlier, neither RBC, PCEs, MN-cells nor the nucleated cell populations provide proper signals for evaluating instrument alignment since they are either nor present in sufficient quantities, the populations are too dispersed, or cell staining variations would be introduced. […]

[2] = system: micronucleated cells in blood; assay: Flow cytometric micronucleus assay, list mode data, blood of MMS treated mice, per 10,000 PCEs; type: in vivo, mouse
Source text: The fixation procedure can affect the permeability of a cell, cell morphology and the amount of undesirable autofluorescence that is associated with a cell preparation. Fixing procedures can cause changes in cell structure (that are reflected in the light scatter patterns) as well as changes in the distribution of the dye molecules within the cells (resulting in altered fluorescence emission patterns). Practioners of the art are unaware that fixing the cells at ultralow temperatures circumvents these fixation problems and provides cells that are suitable for subsequent staining and FCM analysis. Initially, the cells are centrifuged in order to separate them from serum components which could aggregate when added to cold fixative. To fix cells, a fresh blood sample (25 μl) containing an anticogulant is suspended in a solution containing 1% BSA and 10% dimethylsulfoxide (DMSO) in PBS (2 ml). The cells are centrifuged at 500×g for five minutes at room temperature. The supernatant is discarded and the pellet is resuspended in the small amount of residual supernatant that remains. This cell suspension is cooled to 0° C., the cells are diluted further with cold (-70° C.) absolute methanol (2 ml) and it is incubated at -70° C. for five minutes. The cell suspension is then immediately diluted with 1% BSA in PBS (10 ml) and is centrifuged at 500×g for 5 minutes. The low temperature treatment yields fixed cells with good morphology as viewed with either inverted phase contrast microscopy or fluorescent microscopy. […] Cells fixed in this way can be stored at 0° C. for weeks with no significant deterioration and are ready for staining and MN analysis.
It is known to practioners in the art that a variety of fluorescent dyes can be used to stain the DNA and RNA of cells. […] By choosing proper concentrations of these two dyes in conjunction with 363 nm excitation wavelength, it is possible to obtain a blue fluorescence signal from the Hoechst 33258 labeled micronucleii. A red fluorescence signal can be obtained from propidium iodide labeled PCEs. […]

| SMILES | clastogen stimulated increase in MNs ([1]; cyclophosphamide at t=0 and t=48 hrs, primary or expanded window) | Sum96 (t = 96 hr) ([1]; cyclophosphamide, primary window plus sequentially added secondary windows 2-8) | Experimental (A96) (MN96 hr) ([2]; MMS 100 μg/g body weight IP at 0 and 48 hours, 96 hr blood, list mode) | Δ (A96 - T96), change in number of MNs ([2]; MMS 100 μg/g body weight IP at 0 and 48 hours, normalized with K, list mode) | clastogenic activity ([2]; MMS 100 μg/g body weight IP at t=0 and t=48 hours) |
| --- | --- | --- | --- | --- | --- |
| O=P1(N(CCCl)CCCl)NCCCO1 (centres unmarked) [cyclophosphamide] | clastogen stimulated increase in MNs is clearly evident | 1480 MN events and 1563 MN events and 1644 MN events and 1713 MN events and 1778 MN events and 1839 MN events and 1915 MN events | – | – | – |
| COS(C)(=O)=O [MMS, methyl methanesulfonate] | – | – | 432 MNs/10,000 PCEs and 546 MNs/10,000 PCEs and 470 MNs/10,000 PCEs and 523 MNs/10,000 PCEs and 580 MNs/10,000 PCEs | 293 MNs/10,000 PCEs and 342 MNs/10,000 PCEs and 328 MNs/10,000 PCEs and 307 MNs/10,000 PCEs and 374 MNs/10,000 PCEs and 329 ± 32 MNs/10,000 PCEs and 329±28 MNs/10,000 PCEs | MMS exhibited clastogenic activity |
